Laboratory results from patent publication US10336697B2, “Spiro[cyclobutane-1,3′-indolin]-2′-one derivatives as bromodomain inhibitors” (Orion Corporation, priority 2015, dated 2019).

biological target: Bet BRD4 full length bromo-domain protein (Homo sapiens, UniProt O60885); assay: Bet bromodomain TR-FRET assay (displacement of acetyl histone peptide); format: binding; details: Bet BRD4 full length bromodomain protein, 300 nM acetyl histone peptide substrate, read-out: IC50

IC50	Compound
< 600 nM	Cn1cnc2ccc(-c3cc(NS(=O)(=O)c4ccc(F)cc4F)cc4c3NC(=O)C43CCC3)cc21 [Compound 5, 2,4-Difluoro-N-(7′-(1-methyl-1H-benzo[d]imidazol-6-yl)-2′-oxospiro[cyclobutane-1,3′-indolin]-5′-yl)benzene sulphonamide]
600 to 1000 nM	CN1CCC(NC(=O)c2cc(NS(=O)(=O)C3CCCCC3)cc3c2NC(=O)C32CCC2)CC1 [Compound 83, 5′-(Cyclohexanesulfonamido)-N-(1-methylpiperidin-4-yl)-2′-oxospiro[cyclobutane-1,3′-indoline]-7′-carboxamide]
< 600 nM	CN1CCC(CNc2cc(NS(=O)(=O)c3ccc(F)cc3F)cc3c2NC(=O)C32CCC2)CC1 [Compound 32, 2,4-Difluoro-N-(7′-(((1-methylpiperidin-4-yl)methyl)amino)-2′-oxospiro[cyclobutane-1,3′-indolin]-5′-yl)benzenesulfonamide]
600 to 1000 nM	COc1ccccc1S(=O)(=O)Nc1cc(OC(C)c2ccccn2)c2c(c1)C1(CCC1)C(=O)N2 (single isomer, unassigned) [Compound 150, 2-Methoxy-N-(2′-oxo-7′-(1-(pyridin-2-yl)ethoxy)spiro[cyclobutane-1,3′-indolin]-5′-yl)benzenesulfonamide]
< 600 nM	COc1ccccc1S(=O)(=O)Nc1cc(OCCNC2CC2)c2c(c1)C1(CCC1)C(=O)N2 [compound 206, N-(7′-(2-(cyclopropylamino)ethoxy)-2′-oxospiro[cyclobutane-1,3′-indolin]-5′-yl)-2-methoxybenzenesulfonamide]
< 600 nM	Cn1cncc1COc1cc(NS(=O)(=O)c2ccc(Cl)cc2F)cc2c1NC(=O)C21CCC1 [Compound 160, 4-Chloro-2-fluoro-N-(7′-((1-methyl-1H-imidazol-5-yl)methoxy)-2′-oxospiro[cyclobutane-1,3′-indolin]-5′-yl)benzenesulfonamide]
< 600 nM	O=C1Nc2c(OCC3CNCCO3)cc(NS(=O)(=O)c3ccc(Cl)cc3F)cc2C12CCC2 (centres unmarked) [compound 202, 4-Chloro-2-fluoro-N-(7′-(morpholin-2-ylmethoxy)-2′-oxospiro[cyclobutane-1,3′-indolin]-5′-yl)benzenesulfonamide]
< 600 nM	CC(Oc1cc(NS(=O)(=O)c2ccc(Cl)cc2F)cc2c1NC(=O)C21CCC1)c1ccccn1 (single isomer, unassigned) [Compound 156, 4-Chloro-2-fluoro-N-(2′-oxo-7′-(1-(pyridin-2-yl)ethoxy)spiro[cyclobutane-1,3′-indolin]-5′-yl)benzenesulfonamide]
< 600 nM	COc1ccccc1S(=O)(=O)Nc1cc(Cc2cccnc2)c2c(c1)C1(CCC1)C(=O)N2 [Compound 87, 2-Methoxy-N-(2′-oxo-7′-(pyridin-3-ylmethyl)spiro[cyclobutane-1,3′-indolin]-5′-yl)benzenesulfonamide]
> 1000 nM	O=C(c1cc(NS(=O)(=O)c2ccc(F)cc2N2CCOCC2)cc2c1NC(=O)C21CCC1)N1CCOCC1 [Compound 61, 4-Fluoro-N-(7′-(morpholine-4-carbonyl)-2′-oxospiro[cyclobutane-1,3′-indolin]-5′-yl)-2-morpholinobenzenesulfonamide]
< 600 nM	COc1ccccc1S(=O)(=O)Nc1cc(C(C)c2ccccc2)c2c(c1)C1(CCC1)C(=O)N2 (centres unmarked) [Compound 113, 2-Methoxy-N-(2′-oxo-7′-(1-phenylethyl)spiro [cyclobutane-1,3′-indolin]-5′-yl)benzenesulfonamide]
< 600 nM	COC(=O)c1cc(NS(=O)(=O)c2ccc(F)cc2F)cc2c1NC(=O)C21CCC1 [Compound 41, Methyl 5′-((2,4-difluorophenyl)sulfonamido)-2′-oxospiro[cyclobutane-1,3′-indoline]-7′-carboxylate]
< 600 nM	COc1ccc(S(=O)(=O)Nc2cc(OC3CCN(C)CC3)c3c(c2)C2(CCC2)C(=O)N3)c(OC)c1 [compound 187, 2,4-Dimethoxy-N-(7′-((1-methylpiperidin-4-yl)oxy)-2′-oxospiro[cyclobutane-1,3′-indolin]-5′-yl)benzenesulfonamide]
> 1000 nM	COc1ccccc1S(C)(=O)=Nc1cc([N+](=O)[O-])c2c(c1)C1(CCC1)C(=O)N2 (centres unmarked) [Compound-181, 5′-(((2-Methoxyphenyl)(methyl)(oxo)-l6-sulfanylidene)amino)-7′-nitrospiro[cyclobutane-1,3′-indolin]-2′-one]
< 600 nM	CC1CC(Oc2cc(NS(=O)(=O)c3ccc(Cl)cc3F)cc3c2NC(=O)C32CCC2)CC(C)N1C (centres unmarked) [compound 195, 4-Chloro-2-fluoro-N-(2′-oxo-7′-((1,2,6-trimethylpiperidin-4-yl)oxy)spiro[cyclobutane-1,3′-indolin]-5′-yl)benzenesulfonamide]
< 600 nM	CN1CCCC(Nc2cc(NS(=O)(=O)c3ccc(F)cc3F)cc3c2NC(=O)C32CCC2)C1 (single isomer, unassigned) [Compound 34, 2,4-Difluoro-N-(7′-((1-methylpiperidin-3-yl)amino)-2′-oxospiro[cyclobutane-1,3′-indolin]-5′-yl)benzenesulfonamide]
< 600 nM	CCC(=O)N1CCC(Nc2cc(NS(=O)(=O)c3ccc(F)cc3F)cc3c2NC(=O)C32CCC2)CC1 [Compound 21, 2,4-Difluoro-N-(2′-oxo-7′-((1-propionylpiperidin-4-yl)amino)spiro[cyclobutane-1,3′-indolin]-5′-yl)benzenesulfonamide]
< 600 nM	COc1cc(Cl)ccc1S(=O)(=O)Nc1cc(OC2CCN(C)CC2)c2c(c1)C1(CCC1)C(=O)N2 [compound 188, 4-Chloro-2-methoxy-N-(7′-((1-methylpiperidin-4-yl)oxy)-2′-oxospiro[cyclobutane-1,3′-indolin]-5′-yl)benzenesulfonamide]
< 600 nM	CN(C)CCOc1cc(NS(=O)(=O)c2ccc(Cl)cc2F)cc2c1NC(=O)C21CCC1 [Compound 163, 4-Chloro-N-(7′-(2-(dimethylamino)ethoxy)-2′-oxospiro[cyclobutane-1,3′-indolin]-5′-yl)-2-fluorobenzenesulfonamide]
< 600 nM	COc1ccccc1S(=O)(=O)Nc1cc(OC2CCN(C)CC2F)c2c(c1)C1(CCC1)C(=O)N2 (single isomer, unassigned) [compound 191, N-(7′-((3-fluoro-1-methylpiperidin-4-yl)oxy)-2′-oxospiro[cyclobutane-1,3′-indolin]-5′-yl)-2-methoxybenzenesulfonamide]
600 to 1000 nM	O=C(Nc1cc(C2CC2)c2c(c1)C1(CCC1)C(=O)N2)c1ccc(F)cc1 [Compound 75a, N-(7′-Cyclopropyl-2′-oxospiro[cyclobutane-1,3′-indolin]-5′-yl)-4-fluorobenzamide]
600 to 1000 nM	CN1CCCC(Oc2cc(NS(=O)(=O)c3ccc(Cl)cc3F)cc3c2NC(=O)C32CCC2)C1 (centres unmarked) [Compound 131, 4-Chloro-2-fluoro-N-(7′-((1-methylpiperidin-3-yl)oxy)-2′-oxospiro[cyclobutane-1,3′-indolin]-5′-yl)benzenesulfonamide]
< 600 nM	O=C(NC1CCNCC1)c1cc(NS(=O)(=O)c2ccc(F)cc2F)cc2c1NC(=O)C21CCC1 [Compound 66, 5′-(2,4-Difluorophenylsulfonamido)-2′-oxo-N-(piperidin-4-yl)spiro[cyclobutane-1,3′-indoline]-7′-carboxamide]
600 to 1000 nM	O=C1Nc2c(-c3ccc4nc[nH]c4c3)cc(NS(=O)(=O)c3ccc(F)cc3F)cc2C12CCC2 [Compound 8, N-(7′-(1H-benzo[d]imidazol-6-yl)-2′-oxospiro[cyclobutane-1,3′-indolin]-5′-yl)-2,4-difluorobenzenesulfonamide]
> 1000 nM	CN1CCC(NC(=O)c2cc(NS(=O)(=O)c3ccc(C#N)cc3F)cc3c2NC(=O)C32CCC2)CC1 [Compound 81, 5′-((4—Cyano-2-fluorophenyl)sulfonamido)-N-(1-methylpiperidin-4-yl)-2′-oxospiro[cyclobutane-1,3′-indoline]-7′-carboxamide]
< 600 nM	COc1cc(F)ccc1S(=O)(=O)Nc1cc(Cc2cccc(F)c2)c2c(c1)C1(CCC1)C(=O)N2 [Compound 96, 4-Fluoro-N-(7′-(3-fluorobenzyl)-2′-oxospiro[cyclobutane-1,3′-indolin]-5′-yl)-2-methoxybenzenesulfonamide]
> 1000 nM	O=C(c1cc(NS(=O)(=O)c2ccc(F)cc2F)cc2c1NC(=O)C21CCC1)N1CCOCC1 [Compound 48, 2,4-Difluoro-N-(7′-(morpholine-4-carbonyl)-2′-oxospiro [cyclobutane-1,3′-indolin]-5′-yl)benzenesulfonamide]
< 600 nM	COc1ccc(S(=O)(=O)Nc2cc(C3CCNCC3)c3c(c2)C2(CCC2)C(=O)N3)c(OC)c1 [Compound 92, 2,4-Dimethoxy-N-(2′-oxo-7′-(piperidin-4-yl)spiro[cyclobutane-1,3′-indolin]-5′-yl)benzenesulfonamide]
> 1000 nM	COc1ccccc1S(=O)(=O)Nc1cc(OC2CCN(C)CC2)c2c(c1Br)C1(CCC1)C(=O)N2 [compound 216, N-(4′-bromo-7′-((1-methylpiperidin-4-yl)oxy)-2′-oxospiro[cyclobutane-1,3′-indolin]-5′-yl)-2-methoxybenzenesulfonamide]
